{"source": "patent US8846330B2", "about": "“Methods and kits for the diagnosis of RyR1-related diseases” (The Henry M. Jackson Foundation for the Advancement of …, priority 2008, dated 2014)", "system": "lymphocyte cells", "assay": "4CmC-induced adenosine/inosine in human peripheral blood lymphocytes, HPLC (Example 1)", "type": "cell-based", "conditions": "for 4CmC response (adenosine plus inosine) in MHS group relative to MHN or normal groups: EHNA 0.1 mM", "description": "FIG. 2 is a dose-response curve for 4-chloro-m-cresol (4CmC)-induced intracellular adenosine plus inosine in lymphocyte cells from malignant hyperthermia susceptible (MHS, n=11), not-susceptible (MHN, n=9), and normal (n=7) subjects. Lymphocyte cells were treated with 4CmC in the presence of an inhibitor of adenosine deaminase (EHNA, 0.1 mM). After purification, aliquot was analyzed for adenosine and inosine content using HPLC. Adenosine plus inosine values in the absence of 4CmC are plotted against X=0.02 mM to allow logarithmic display of the entire dose response curve. Adenosine plus inosine levels were normalized to reflect per 1 million cells. 4CmC responses at 1, 2, and 5 mM on MHS groups are about 4, 4, and 6 fold higher than the corresponding values in MI-1N or normal groups with values of 6×10^−5, 8×10^−5, and […], respectively. There were no overlaps between the MHS group and the MHN or normal groups.\nLymphocyte cells from MHS (n=11), MHN (n=9) and normal (n=7) subjects were suspended in normal HBSS plus 0.1% BSA and treated with adenosine deaminase inhibitor (EHNA, 0.1 mM). After 10 minutes of incubation at 37° C., cells were treated with HBSS, with and without the RyR1 agonist 4CmC (5 mM) and incubated at 37° C. for an additional 45 minutes. After termination and purification of the samples, aliquots (50 μl) were assayed in duplicate for adenosine and inosine content using HPLC. Concentrations are normalized to per 1 million cells. The sum of the adenosine plus inosine level is about 6-fold higher than corresponding values in normal and MHN cells.\nPilot studies were conducted using blood samples from human subjects in the following groups: Group 1: MHS subjects with positive CHCT and/or having a known MH associated mutation (n=11); Group 2: non-MH susceptible with negative CHCT results (MHN) (n=9), and Group 3: normal subjects who had not undergone CHCT and had no family history of MH (n=7).\nBriefly, venous blood samples (20 ml) were drawn from patients using heparinized blood collection tubes. Peripheral blood lymphocyte cells were isolated from whole blood by the Ficoll-Hypaque centrifugation technique. Briefly, diluted anti-coagulated blood is layered over Ficoll-Hypaque and centrifuged. Mononuclear cells consisting of lymphocytes and some monocytes are recovered at the interface. The cells were washed with the Flanks' balanced salt solution (HBSS) buffer, re-suspended in the HBSS buffer, and treated with different concentration of 4CmC at 37° C. in the presence and/or absence of inhibitor of adenosine deaminase erythro-9-(2-hydroxy-3-nonyl)adenine (EHNA) for about 30 minutes. The cells were then purified by adding an equal volume of 6% HClO4 and centrifuged at 6000 rpm for 10 minutes. Aliquots of the supernatant were analyzed for adenosine and inosine content with HPLC using a Waters Separation Module (Model 2695) equipped with Waters Photodiode Array Detector and Empower software.", "note": "“And” between values parts separate entries of the source, which are not always exact repeats. Equal entries are not always repeated."}
{"molecule": "Cc1cc(O)ccc1Cl", "note": "[4CmC, 4-chloro-m-cresol]", "values": [{"measurement": "4CmC response (adenosine plus inosine) in MHS group relative to MHN or normal groups", "setting": "1 mM 4CmC", "result": "about 4 fold"}, {"measurement": "4CmC response (adenosine plus inosine) in MHS group relative to MHN or normal groups", "setting": "2 mM 4CmC", "result": "about 4 fold"}, {"measurement": "stimulation of adenosine plus inosine formation in control and MHN samples", "setting": "5 mM 4CmC (maximum effective dose)", "result": "did not, or minimally stimulated"}, {"measurement": "stimulation of nucleosides formation by 4CmC in MHS samples", "setting": "5 mM 4CmC, FIG. 3", "result": "~6", "unit": "fold"}, {"measurement": "adenosine plus inosine level after 4CmC treatment, mean±SEM", "setting": "5 mM 4CmC, MHN group (n=9)", "result": "5.4 ± 0.6", "unit": "µM"}, {"measurement": "adenosine plus inosine level after 4CmC treatment, mean±SEM", "setting": "5 mM 4CmC, MHS group (n=11)", "result": "35.6 ± 3.1", "unit": "µM"}, {"measurement": "adenosine plus inosine level after 4CmC treatment, mean±SEM", "setting": "5 mM 4CmC, normal group (n=7)", "result": "5.6 ± 1", "unit": "µM"}, {"measurement": "[Adenosine] μM Post 5 mM 4CmC", "setting": "lymphocytes of single normal subjects, 5 mM 4CmC", "result": "0.220 µM and 0.144 µM and 0.246 µM and 0.154 µM and 0.276 µM and 0.177 µM and 0.268 µM"}, {"measurement": "4CmC concentration at which inosine release reaches saturation", "setting": "without EHNA", "result": "about 5 mM"}, {"measurement": "4CmC concentrations that stimulate inosine release dose-dependently", "setting": "without EHNA", "result": "above 1 mM"}, {"measurement": "effect of 4CmC on adenosine formation", "setting": "without adenosine deaminase inhibitor", "result": "not affected"}]}
